Data: ChEMBL document CHEMBL5465560, “Selectivity Literature for EUbOPEN Chemogenomic Library” (2024)

Columns and labels:
[1] = target: Mitogen-activated protein kinase kinase kinase kinase 4 (Homo sapiens, UniProt O95819); assay: Selectivity interaction (Ambit KINOMEscan and KiNATiv profiling in Jurkat cells) EUB0000090b MAP4K4; type: cell-based; details: at 1 µM
[2] = target: T1, Phosphatidylinositol 4-kinase beta (Homo sapiens, UniProt Q9UBF8); assay: Selectivity interaction (Kinase panel (literature)) EUB0001199aCl PI4KB; details: at 1 µM
[3] = target: T1, Phosphatidylinositol 4-kinase beta; assay: Selectivity interaction (KinomeScan (DiscoverX)) EUB0001079a PI4KB; details: at 1 µM
[4] = target: Tyrosine-protein kinase receptor Tie-1 (Homo sapiens) (UniProt P35590); assay: Selectivity interaction (KinomeScan (DiscoverX)) EUB0000618a TIE1; details: at 10 µM
[5] = target: Epithelial discoidin domain-containing receptor 1 (Homo sapiens) (UniProt Q08345); assay: Selectivity interaction (KinomeScan (DiscoverX)) EUB0000607a DDR1; details: at 10 µM
[6] = target: Serine/threonine-protein kinase MARK2 (Homo sapiens) (UniProt Q7KZI7); assay: Selectivity interaction (KinomeScan (DiscoverX)) EUB0000607a MARK2; details: at 10 µM
[7] = target: Serine/threonine-protein kinase 24 (Homo sapiens) (UniProt Q9Y6E0); assay: Selectivity interaction (KinomeScan (DiscoverX)) EUB0000607a STK24; details: at 10 µM
[8] = target: Serine/threonine-protein kinase 32B (Homo sapiens) (UniProt Q9NY57); assay: Selectivity interaction (KinomeScan (DiscoverX)) EUB0000607a STK32B; details: at 10 µM
[9] = target: Serine/threonine-protein kinase SIK3 (Homo sapiens) (UniProt Q9Y2K2); assay: Selectivity interaction (ActivX KiNativ screen (ex vivo kinase selectivity in human PBMCs)) EUB0001619a SIK3; type: cell-based; details: PBMC, at 1 µM
[10] = target: Serine/threonine-protein kinase WNK2 (Homo sapiens) (UniProt Q9Y3S1); assay: Selectivity interaction (ActivX KiNativ screen (ex vivo kinase selectivity in human PBMCs)) EUB0001619a WNK2; type: cell-based; details: PBMC, at 1 µM
[11] = target: LIM domain kinase 1 (Homo sapiens) (UniProt P53667); assay: Selectivity interaction (KinomeScan (DiscoverX)) EUB0000595a LIMK1; details: at 10 µM
[12] = target: T2, Mitogen-activated protein kinase 13 (Homo sapiens) (UniProt O15264); assay: Selectivity interaction (ActivX KiNativ screen (kinase selectivity in THP-1 cell lysates)) EUB0000639a MAPK13; type: subcellular; details: lysate
T2 sequence (whole entry): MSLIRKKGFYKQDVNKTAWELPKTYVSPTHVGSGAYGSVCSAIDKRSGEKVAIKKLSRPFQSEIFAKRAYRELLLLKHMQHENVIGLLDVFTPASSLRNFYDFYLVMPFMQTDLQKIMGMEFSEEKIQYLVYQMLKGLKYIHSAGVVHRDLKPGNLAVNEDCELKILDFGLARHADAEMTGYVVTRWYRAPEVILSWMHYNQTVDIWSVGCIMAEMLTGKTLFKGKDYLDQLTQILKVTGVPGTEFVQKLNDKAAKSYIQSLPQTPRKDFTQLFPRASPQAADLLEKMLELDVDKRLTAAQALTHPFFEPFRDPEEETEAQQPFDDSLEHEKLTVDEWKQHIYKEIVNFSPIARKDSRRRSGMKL

[13] = target: Casein kinase II subunit alpha' (Homo sapiens) (UniProt P19784); assay: Selectivity interaction (KinomeScan (DiscoverX)) EUB0000229b CSNK2A2; details: at 10 µM
[14] = target: Serine/threonine-protein kinase PLK2 (Homo sapiens, UniProt Q9NYY3); assay: Selectivity interaction (KinomeScan (DiscoverX)) EUB0000229b PLK2; details: at 10 µM
[15] = target: T3, Serine/threonine-protein kinase BRSK1 (Homo sapiens) (UniProt Q8TDC3); assay: Selectivity interaction (KinomeScan (DiscoverX)) EUB0001049a BRSK1; details: at 1 µM
T3 sequence (whole entry): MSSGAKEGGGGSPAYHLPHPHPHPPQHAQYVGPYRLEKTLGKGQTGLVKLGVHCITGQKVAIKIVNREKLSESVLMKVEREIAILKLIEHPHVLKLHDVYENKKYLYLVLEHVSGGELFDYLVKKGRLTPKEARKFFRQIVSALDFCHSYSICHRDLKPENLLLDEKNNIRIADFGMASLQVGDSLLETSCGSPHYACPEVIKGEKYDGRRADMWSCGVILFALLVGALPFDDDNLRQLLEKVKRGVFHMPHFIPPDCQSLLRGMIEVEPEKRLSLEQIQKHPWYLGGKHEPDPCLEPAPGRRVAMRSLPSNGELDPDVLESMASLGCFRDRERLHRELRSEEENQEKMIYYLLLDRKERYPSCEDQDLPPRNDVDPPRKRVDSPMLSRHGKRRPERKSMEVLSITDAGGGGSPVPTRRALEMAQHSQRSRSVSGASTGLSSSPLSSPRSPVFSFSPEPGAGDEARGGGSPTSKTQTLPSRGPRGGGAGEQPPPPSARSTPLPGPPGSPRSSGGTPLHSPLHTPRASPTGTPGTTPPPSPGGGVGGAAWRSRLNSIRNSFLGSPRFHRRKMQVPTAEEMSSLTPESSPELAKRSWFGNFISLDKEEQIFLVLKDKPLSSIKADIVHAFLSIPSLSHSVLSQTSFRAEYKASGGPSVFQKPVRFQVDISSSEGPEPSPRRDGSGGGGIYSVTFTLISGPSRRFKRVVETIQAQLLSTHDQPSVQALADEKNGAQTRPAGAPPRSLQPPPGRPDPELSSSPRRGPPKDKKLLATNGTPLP

[16] = target: aryl hydrocarbon receptor (AHR) (Homo sapiens, UniProt P35869); assay: Selectivity interaction (Panel of kinases, GPCRs, ion channels and transporters (enzymatic assay)) EUB0000266bCl AHR
[17] = target: Eukaryotic translation initiation factor 2-alpha kinase 1 (Homo sapiens) (UniProt Q9BQI3); assay: Selectivity interaction (KinomeScan (DiscoverX)) EUB0000666a EIF2AK1; details: at 10 µM
[18] = target: Dual specificity mitogen-activated protein kinase kinase 1 (Homo sapiens, UniProt Q02750); assay: Selectivity interaction (Kinase panel (Z-LYTE Assay)) EUB0001632a MAP2K1; details: at 10 µM
[19] = target: Protein kinase C theta type (Homo sapiens, UniProt Q04759); assay: Selectivity interaction (Kinase panel (Z-LYTE Assay)) EUB0001632a PRKCQ; details: at 10 µM

T1 sequence (Q9UBF8 2-816 limits assumed): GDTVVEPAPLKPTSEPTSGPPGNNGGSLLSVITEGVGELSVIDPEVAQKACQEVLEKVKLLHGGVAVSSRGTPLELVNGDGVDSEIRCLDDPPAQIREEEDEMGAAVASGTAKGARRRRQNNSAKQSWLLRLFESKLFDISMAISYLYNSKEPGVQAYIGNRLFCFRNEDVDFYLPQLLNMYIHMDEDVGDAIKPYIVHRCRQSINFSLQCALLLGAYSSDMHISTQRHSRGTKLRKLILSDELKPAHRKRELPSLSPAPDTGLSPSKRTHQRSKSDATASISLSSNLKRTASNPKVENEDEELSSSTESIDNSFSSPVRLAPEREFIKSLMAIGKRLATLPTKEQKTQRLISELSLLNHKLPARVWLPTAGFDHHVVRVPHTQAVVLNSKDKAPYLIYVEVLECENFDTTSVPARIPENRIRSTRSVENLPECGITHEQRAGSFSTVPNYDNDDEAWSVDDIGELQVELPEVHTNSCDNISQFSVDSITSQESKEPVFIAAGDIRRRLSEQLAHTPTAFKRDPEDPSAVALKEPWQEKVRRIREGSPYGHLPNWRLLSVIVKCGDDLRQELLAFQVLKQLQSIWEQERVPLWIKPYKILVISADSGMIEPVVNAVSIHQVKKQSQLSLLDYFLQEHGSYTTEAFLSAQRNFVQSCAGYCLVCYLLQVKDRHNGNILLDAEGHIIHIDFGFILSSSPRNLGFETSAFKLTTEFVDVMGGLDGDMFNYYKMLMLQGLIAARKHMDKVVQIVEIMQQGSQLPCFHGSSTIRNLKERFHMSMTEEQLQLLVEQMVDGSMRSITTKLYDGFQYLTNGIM
Dual specificity mitogen-activated protein kinase kinase 1, sequence (Q02750 whole entry): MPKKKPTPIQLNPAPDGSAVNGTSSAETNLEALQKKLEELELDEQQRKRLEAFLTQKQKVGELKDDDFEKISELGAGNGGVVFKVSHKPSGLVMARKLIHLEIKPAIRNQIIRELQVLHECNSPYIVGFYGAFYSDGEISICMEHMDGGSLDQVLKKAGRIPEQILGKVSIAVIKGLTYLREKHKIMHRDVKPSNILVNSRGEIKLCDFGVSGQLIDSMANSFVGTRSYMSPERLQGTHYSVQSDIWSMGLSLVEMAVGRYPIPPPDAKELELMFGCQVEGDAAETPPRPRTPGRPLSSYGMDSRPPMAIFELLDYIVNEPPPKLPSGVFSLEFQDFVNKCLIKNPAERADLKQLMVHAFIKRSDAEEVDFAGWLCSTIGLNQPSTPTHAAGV
LIM domain kinase 1 (Homo sapiens), sequence (P53667 whole entry, looked up, the tested form may be a part): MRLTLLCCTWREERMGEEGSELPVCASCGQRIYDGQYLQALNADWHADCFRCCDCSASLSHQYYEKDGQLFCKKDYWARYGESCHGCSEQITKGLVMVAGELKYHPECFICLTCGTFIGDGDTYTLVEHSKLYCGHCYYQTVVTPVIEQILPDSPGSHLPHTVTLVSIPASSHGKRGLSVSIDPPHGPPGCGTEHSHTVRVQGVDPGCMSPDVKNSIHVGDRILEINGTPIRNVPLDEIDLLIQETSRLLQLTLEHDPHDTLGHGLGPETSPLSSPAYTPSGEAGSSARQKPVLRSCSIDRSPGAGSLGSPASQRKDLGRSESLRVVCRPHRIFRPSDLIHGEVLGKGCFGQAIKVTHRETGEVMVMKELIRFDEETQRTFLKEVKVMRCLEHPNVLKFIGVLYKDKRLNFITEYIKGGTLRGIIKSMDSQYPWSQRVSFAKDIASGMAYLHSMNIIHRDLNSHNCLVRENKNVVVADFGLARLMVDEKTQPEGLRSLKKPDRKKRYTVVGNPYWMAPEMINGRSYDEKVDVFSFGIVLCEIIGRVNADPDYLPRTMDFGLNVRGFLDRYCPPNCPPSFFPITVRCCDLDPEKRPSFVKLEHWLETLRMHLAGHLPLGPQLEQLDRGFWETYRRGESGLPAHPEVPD
Serine/threonine-protein kinase MARK2 (Homo sapiens), sequence (Q7KZI7 whole entry): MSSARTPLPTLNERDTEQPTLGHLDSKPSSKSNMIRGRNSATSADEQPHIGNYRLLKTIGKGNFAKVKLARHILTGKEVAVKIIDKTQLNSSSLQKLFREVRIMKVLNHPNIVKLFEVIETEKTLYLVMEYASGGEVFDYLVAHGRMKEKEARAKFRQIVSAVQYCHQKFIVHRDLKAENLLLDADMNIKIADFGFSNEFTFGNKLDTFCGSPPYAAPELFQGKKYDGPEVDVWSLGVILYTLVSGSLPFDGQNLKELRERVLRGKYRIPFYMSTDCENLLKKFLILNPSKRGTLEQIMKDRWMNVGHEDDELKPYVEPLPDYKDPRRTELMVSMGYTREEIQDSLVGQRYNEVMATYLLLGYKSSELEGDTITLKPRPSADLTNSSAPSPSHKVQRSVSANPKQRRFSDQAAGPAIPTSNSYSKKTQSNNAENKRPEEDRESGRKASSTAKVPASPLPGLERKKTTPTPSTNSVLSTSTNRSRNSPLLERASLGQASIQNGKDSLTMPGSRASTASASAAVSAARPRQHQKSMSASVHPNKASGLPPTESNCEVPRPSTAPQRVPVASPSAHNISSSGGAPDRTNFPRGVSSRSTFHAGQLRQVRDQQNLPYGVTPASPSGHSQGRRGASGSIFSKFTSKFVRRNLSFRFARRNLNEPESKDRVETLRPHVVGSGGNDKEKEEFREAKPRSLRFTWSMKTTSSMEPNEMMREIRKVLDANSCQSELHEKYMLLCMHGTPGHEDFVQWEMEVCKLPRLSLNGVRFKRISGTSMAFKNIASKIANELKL
Serine/threonine-protein kinase PLK2, sequence (Q9NYY3 whole entry, looked up): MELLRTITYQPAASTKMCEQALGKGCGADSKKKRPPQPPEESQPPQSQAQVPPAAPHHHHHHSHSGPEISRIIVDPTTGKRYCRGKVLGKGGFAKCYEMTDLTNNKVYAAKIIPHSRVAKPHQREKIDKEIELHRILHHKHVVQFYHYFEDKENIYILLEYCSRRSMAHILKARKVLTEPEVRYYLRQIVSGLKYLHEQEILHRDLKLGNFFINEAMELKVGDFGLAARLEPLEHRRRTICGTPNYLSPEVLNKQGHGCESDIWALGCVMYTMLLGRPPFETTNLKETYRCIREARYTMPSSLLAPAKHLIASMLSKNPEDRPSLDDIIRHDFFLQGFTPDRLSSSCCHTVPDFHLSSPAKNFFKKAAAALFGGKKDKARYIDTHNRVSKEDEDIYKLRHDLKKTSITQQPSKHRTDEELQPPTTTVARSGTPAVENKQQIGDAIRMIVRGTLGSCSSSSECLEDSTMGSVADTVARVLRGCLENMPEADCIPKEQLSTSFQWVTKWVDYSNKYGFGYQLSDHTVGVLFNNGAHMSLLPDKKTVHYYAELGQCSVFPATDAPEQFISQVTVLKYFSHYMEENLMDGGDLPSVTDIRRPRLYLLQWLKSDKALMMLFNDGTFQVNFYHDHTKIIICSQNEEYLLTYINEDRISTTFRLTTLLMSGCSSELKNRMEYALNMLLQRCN
Tyrosine-protein kinase receptor Tie-1 (Homo sapiens), sequence (P35590 whole entry, the tested form may be a part): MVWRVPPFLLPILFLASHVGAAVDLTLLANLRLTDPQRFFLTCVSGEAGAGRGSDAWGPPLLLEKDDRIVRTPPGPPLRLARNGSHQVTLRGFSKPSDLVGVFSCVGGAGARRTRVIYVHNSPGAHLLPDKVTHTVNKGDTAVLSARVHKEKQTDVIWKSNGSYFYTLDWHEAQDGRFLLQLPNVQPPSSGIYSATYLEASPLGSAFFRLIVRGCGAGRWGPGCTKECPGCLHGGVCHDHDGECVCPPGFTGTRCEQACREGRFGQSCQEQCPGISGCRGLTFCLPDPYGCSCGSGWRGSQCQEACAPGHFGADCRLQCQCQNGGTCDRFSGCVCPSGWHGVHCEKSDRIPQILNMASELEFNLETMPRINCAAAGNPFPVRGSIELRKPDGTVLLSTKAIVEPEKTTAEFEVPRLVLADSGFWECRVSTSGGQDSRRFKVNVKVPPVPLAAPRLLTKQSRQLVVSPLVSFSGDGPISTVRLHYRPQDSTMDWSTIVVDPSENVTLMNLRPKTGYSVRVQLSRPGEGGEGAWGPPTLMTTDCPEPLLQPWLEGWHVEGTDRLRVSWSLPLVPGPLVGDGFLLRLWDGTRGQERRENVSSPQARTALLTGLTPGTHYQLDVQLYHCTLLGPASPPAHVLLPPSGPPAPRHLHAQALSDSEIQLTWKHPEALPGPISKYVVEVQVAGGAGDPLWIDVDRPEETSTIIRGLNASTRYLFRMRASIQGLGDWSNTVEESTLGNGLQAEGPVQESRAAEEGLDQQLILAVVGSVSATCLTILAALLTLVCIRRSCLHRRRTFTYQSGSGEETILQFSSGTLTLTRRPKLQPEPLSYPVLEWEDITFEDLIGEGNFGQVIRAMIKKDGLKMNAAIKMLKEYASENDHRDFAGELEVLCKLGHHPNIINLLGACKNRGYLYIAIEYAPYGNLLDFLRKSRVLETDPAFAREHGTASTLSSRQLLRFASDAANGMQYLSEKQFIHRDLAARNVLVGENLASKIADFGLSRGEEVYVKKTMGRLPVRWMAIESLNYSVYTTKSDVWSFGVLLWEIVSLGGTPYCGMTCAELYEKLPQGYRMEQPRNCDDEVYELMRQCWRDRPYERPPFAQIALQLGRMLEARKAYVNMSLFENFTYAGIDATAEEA
Serine/threonine-protein kinase 32B (Homo sapiens), sequence (Q9NY57 whole entry): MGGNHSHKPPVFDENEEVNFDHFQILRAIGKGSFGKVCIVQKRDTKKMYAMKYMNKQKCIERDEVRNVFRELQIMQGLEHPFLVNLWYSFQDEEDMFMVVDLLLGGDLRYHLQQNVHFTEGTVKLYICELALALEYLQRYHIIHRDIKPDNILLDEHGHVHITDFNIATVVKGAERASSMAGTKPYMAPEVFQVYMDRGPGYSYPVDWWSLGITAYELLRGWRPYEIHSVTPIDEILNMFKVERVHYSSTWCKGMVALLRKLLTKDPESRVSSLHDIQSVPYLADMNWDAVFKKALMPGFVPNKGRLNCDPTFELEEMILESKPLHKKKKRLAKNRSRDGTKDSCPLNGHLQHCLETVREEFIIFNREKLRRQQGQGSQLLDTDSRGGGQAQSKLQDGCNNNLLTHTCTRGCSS

CN(C)C/C=C/C(=O)Nc1ccc(C(=O)N2CCCC(Nc3ncc(Cl)c(-c4c[nH]c5ccccc45)n3)C2)cc1 (stereo not drawn)
% of control [1]: 78%

CN1Cc2nccc(-c3cn(C)nc3-c3ccc(F)cc3)c2C1=O
% of inhibition [2]: -3%

Nc1cnc(N2CCc3cc(S(=O)(=O)Nc4c(F)cc(Cl)cc4F)cc(N4CCCC4=O)c32)nc1 [TP-020n]
% of control [3]: 93%

O[C@H]1CC[C@H](Nc2ncc3nc(Nc4c(F)cc(F)cc4F)n([C@H]4CCOC4)c3n2)CC1
% of control [4]: 100%

CNC(=O)Nc1ccc(-c2nc(N3CC4CCC(C3)O4)c3cnn(C4CCC5(CC4)OCCO5)c3n2)cc1
% of control [5]: 66%
% of control [6]: 100%
% of control [7]: 96%
% of control [8]: 86%

N#Cc1cccc(-c2c[nH]c3ncnc(N4CCOCC4)c23)c1
% of inhibition [9]: 14%
% of inhibition [10]: -1%

COCC(=O)NC/C=C/c1ccc2ncnc(Nc3ccc(Oc4ccc(C)nc4)c(C)c3)c2c1 [CP-724714]
% of control [11]: 93%

CC[C@@H]1[C@H](F)C(=O)N[C@@H]1COc1nccc2cc(C(N)=O)c(OC)cc12 [ZIMLOVISERTIB]
% of inhibition ([12]; at 0.01 µM): -4.4%
% of inhibition ([12]; at 0.04 µM): 6%
% of inhibition ([12]; at 0.2 µM): -3.6%
% of inhibition ([12]; at 1 µM): 7.4%
% of inhibition ([12]; at 5 µM): 20.3%

COc1cc(N(C)c2ccnc3ccc(C(F)(F)F)cc23)cc(OC)c1OC
% binding [13]: 100%
% binding [14]: 88%

COc1cc(Nc2nc(C)cc(-c3cnn4nc(OC)ccc34)n2)cc(C(F)(F)F)c1
% of control [15]: 86%

CCn1c(-c2nc3cc(C(=O)N4CCCC(N)C4)ccc3n2C)cc2ccccc21 (stereo not drawn)
XC50 [16]: > 100 µM

O=C(NOC[C@H](O)CO)c1ccc(F)c(F)c1Nc1ccc(I)cc1F
% of control [17]: 100%

Cn1cc(-n2cnc3c(NCc4nc5cc(Cl)c(Cl)cc5[nH]4)nc(N4CCOCC4)nc32)cn1
% of control [18]: -2.06%
% of control [19]: 14.5%
